From patent US20260315596A1, “HYBRID NANOPARTICLES AS MULTIFUNCTIONAL PLATFORM FOR BRAIN TUMOR THERAPY” (UNIVERSIDADE DE COIMBRA, priority 2022, published 2026)
Read-outs that look alike come from different tables or passages of the source.

Key:
[1] = test system: orthotopic U87 human GB tumor; test: In vivo antitumor efficacy in orthotopic U87 glioblastoma model; set-up: species or system human tumor in Swiss nude mice
Description: Regarding orthotopic U87 human GB tumor model, before the surgical procedure, fourteen nude mice were weighted, given buprenorphine (0.1 mg/Kg) intraperitoneally and placed on a stereotactic frame. To maintain anesthesia and sedation, the mice were anesthetized for 30 min with 4% isoflurane gas, mixed with medical oxygen at a rate of 1 L/min. Vital signs such as respiratory frequency and body temperature were monitored continuously. After the identification of the injection site, at the Cartesian coordinates (x, y, z)=(2.1, 0.5, −3) in relation to bregma, approximately 36 000 U87 cells were injected in the striatum of the frontal cortex of the right hemisphere of the brain, using a Hamilton syringe. In every mouse, the presence, location and volume of the tumors were assessed by Magnetic Resonance Imaging (MRI) weekly. MRI was performed using a 9.4T Bruker BioSpec 94/20USR system (Bruker, Germany) after anesthetizing mice with isoflurane (1 L/min, induction: 4% isoflurane; maintenance: 2% isoflurane). Vital signs, in particular, respiratory frequency and body temperature, were monitored continuously. For structural analysis, T2-weighted images were acquired in sagittal, coronal and axial planes, using a rapid acquisition with relaxation enhancement sequence (T2 Turbo RARE). Tumor images were manually segmented in the 3D Slicer software for 3D reconstruction, in order to calculate tumor volume.
Similarly, to the safety evaluation test, all animals were closely observed during the immediate post injection period. Mice physical appearance (body weight and coat condition), body function (food intake), presence of loose stools, diarrhea or blood in diarrhea and behavior (handling, aggression, abnormal gait and posture and reluctance to move) were also monitored throughout the study. Pre-determined human endpoints for animal euthanasia were also established, specifically, a weight loss greater than 20% of initial body weight, a temperature drop (<35° C.), and a tumor size higher than 50 mm^3. […]
The tumor growth delayed (TGD), which concerns the evaluation of tumor treatment modalities, was calculated according to
where, Dtreatment and Dcontrol correspond to the average doubling times of the treated and control tumors, respectively.
The tumor growth inhibition (TGI), which measures the tumor size between treated and control groups at specific time points was calculated according to
[formula] • where ΔT (=T−T0) represents the change in tumor size (volume) for the treated animals, while ΔC(=C−C0) represents the change in tumor size (volume) for the control animals. By comparing these values, the degree of tumor growth inhibition can be determined.

[2] = Pharmacokinetics and biodistribution in mice after i.p. administration; format: in vivo, Swiss nude mice; set-up: AUCinf: concentration or dose not given beside the values
Description: Adult male and female Swiss Nu/Nu and Swiss Nu/+ mice, aged between 10-14 weeks and weighting 22-30 g, were purchased from Charles River Laboratories (Lyon, France) and maintained in local animal facilities under controlled conditions (12 hours light/dark cycle, at 20±2° C. and 50±5% of relative humidity), with free access to standard diet and water. All animal experiments were conducted in agreement with the international regulations of the European Union.
A solution containing CXB in PEG 400: NaCl 0.9% (pH=7.4) (2:1, V/V) was used as control. Thereafter, mice were sacrificed by decapitation at predetermined post-dosing time points. Blood samples were collected to heparinised tubes and centrifuged at 2880 g for 10 min at 4° C. Plasma supernatant was collected and frozen at −80° C. until analysis. […] Brain and liver tissues were homogenized with an H2O-acetonitrile (1:1, V/V) solution (4 mL per g of tissue) using a Thomas® Teflon pestle tissue homogenizer and centrifuged at 4 150 g for 15 min at 4° C. In parallel, spleen tissues were homogenized with 1 ml of the same solution using a high-speed stirrer (Ultra-Turrax X1020, Ystral GmbH, Dottingen, Germany) and then, centrifuged at 12 045 g for 5 min at 4° C. All supernatants were collected and stored at −80° C. until analysis using a previously validated HPLC method. […]

[3] = Serum biomarkers for toxicity evaluation in glioblastoma-bearing mice; format: in vivo, Swiss nude mice; details: free drug in solution
Description: After reaching the endpoint, animals were euthanized. Whole blood samples were collected from mice immediately to heparinized tubes. The supernatant (serum) of blood obtained after centrifugation (2880×g for 10 min at 4° C.) was used to determine the levels of physiological biomarkers such as aspartate aminotransferase (AST), alanine aminotransferase (ALT), alkaline phosphatase (ALP), gamma glutamyl transpeptidase (GGT), creatinine kinase (CK), and urea (U) to investigate the effects of drug, nanoparticles and photothermal treatment.

[4] = Safety and tolerability in mice; set-up: species or system Swiss nude mice; details: mouse, in vivo
Description: The dose used for temozolomide was 30 mg/kg (i.p administration) and 50 mg/kg (oral administration), as the upper threshold tolerated by animals. The treatment started 21 days after U87 cell implantation.
To understand the drug effect: At 21 days post-tumor cell injection, mice were randomly divided into six groups and treated intraperitoneally for two cycles of five consecutive days. […] Similarly, to the safety evaluation test, all animals were closely observed during the immediate post injection period. Mice physical appearance (body weight and coat condition), body function (food intake), presence of loose stools, diarrhea or blood in diarrhea and behavior (handling, aggression, abnormal gait and posture and reluctance to move) were also monitored throughout the study. Pre-determined human endpoints for animal euthanasia were also established, specifically, a weight loss greater than 20% of initial body weight, a temperature drop (<35° C.), and a tumor size higher than 50 mm^3.

U87 cells = test: Resazurin cytotoxicity assay in U87 / glioma cells; format: cell-based, human; details: for IC50: all glioma cells, 24 hours and 72 hours
Description: In vitro toxicity studies were performed as described in Example 4. To assess the potential cytotoxicity of both loaded and unloaded NPs, the resazurin assay was conducted in HBMEC and U87 cells. The sensitivity of GB cells to free CXB and TMZ was assessed following a treatment with a drug solution in the range 7-1700 μM and 5-2500 μM, respectively.
The cytotoxicity effect of AuNRs^c(RGDfK) and HNPs/HNPs^Tf against U87 cells. Regarding cell viability, the U87 cells were cultured in DMEM/F-12 medium, supplemented with 10% (v/v) FBS, 1% (v/v) penicillin-streptomycin solution and sodium bicarbonate. U87 were maintained at 37° C. in a humidified atmosphere containing CO2 (5%). The resazurin assay was used to determine the cytotoxicity of CXB, AuNRs^c(RGDfK) and HNPs. Briefly, 2000 cells per well were seeded in a 96 well plate and incubated for 24 hours or 72 hours after the medium was replaced with increasing concentrations of CXB or AuNRs^c(RGDfK) or HNPs/HNPS^Tf. Subsequently, the medium was removed, and the cell viability determined. For this purpose, 100 μl of 10% (w/v) resazurin solution in DMEM/F 12 was added to the cells and incubated for approximately 2 hours, at 37° C. The enzymatic reduction of resazurin to resorufin was analyzed by UV/Vis spectrophotometry at 570 nm and 600 nm. Cell viability was assessed as described above.

glioblastoma = details: cited from earlier work
[5] = i.p., no irradiation (TMZ 30 mg/kg, CXB 5 mg/kg, nanoparticles 20 mg/kg)
[6] = celecoxib, i.p. mice, plasma, 20 mg/kg
[7] = mouse, ip, 20 mg/kg, celecoxib, i.p. mice, brain
[8] = mouse, ip, 20 mg/kg, celecoxib, i.p. mice, kidney
[9] = mouse, ip, 20 mg/kg, celecoxib, i.p. mice, liver
[10] = mouse, ip, 20 mg/kg, celecoxib, i.p. mice, plasma
[11] = mouse, ip, 20 mg/kg, celecoxib, i.p. mice, spleen
[12] = i.p., no irradiation (TMZ 30 mg/kg, CXB 5 mg/kg, nanoparticles 20 mg/kg), listed as temozolomide
[13] = oral, 50 mg/kg, listed as temozolomide

Cc1ccc(-c2cc(C(F)(F)F)nn2-c2ccc(S(N)(=O)=O)cc2)cc1 [CXB, celecoxib]
mean survival time (MST) ([1]; i.p., no irradiation (CXB 5 mg/kg, nanoparticles 20 mg/kg)): 48 days
% Tumor Growth Delay [1, 5]: 15 ± 5%
% Tumor Growth Inhibition [1, 5]: 13 ± 6%
Median survival [1, 5]: 48 days
Survivals at 56 days [1, 5]: 1/6
Survivals at 91 days [1, 5]: 0/6
inhibition of growth of GB cells in vivo ([1]; i.p., in words): the effect was not significant
AUC0-last ([2]; celecoxib, i.p. mice, brain): 36.7 µg·h/g
AUCextrap ([2]; celecoxib, i.p. mice, brain): 7.08%
AUCinf ([2]; celecoxib, i.p. mice, brain): 39.5 µg·h/g
AUC0-last ([2]; celecoxib, i.p. mice, kidney): 35.3 µg·h/g
AUCextrap ([2]; celecoxib, i.p. mice, kidney): 16.3%
AUCinf ([2]; celecoxib, i.p. mice, kidney): 42.2 µg·h/g
AUC0-last ([2]; celecoxib, i.p. mice, liver): 27.7 µg·h/g
AUCextrap ([2]; celecoxib, i.p. mice, liver): 30.4%
AUCinf ([2]; celecoxib, i.p. mice, liver): 39.8 µg·h/g
AUCextrap ([2]; celecoxib, i.p. mice, plasma): 13.0%
AUC0-last [2, 6]: 28100 ng·h/mL
Cmax [2, 6]: 9100 ng/mL
AUC0-last ([2]; celecoxib, i.p. mice, spleen): 73.2 µg·h/g
AUCextrap ([2]; celecoxib, i.p. mice, spleen): 42.0%
AUCinf ([2]; celecoxib, i.p. mice, spleen): 126.2 µg·h/g
Cmax ([2]; mouse, brain, ip, 20 mg/kg, celecoxib, i.p. mice, brain, read-out: Cmax): 20600 ng/g
AUC(0-t) ([2]; mouse, ip, 20 mg/kg, plasma): 28100 ng·h/mL
MRT [2, 7]: 2 h
Tmax [2, 7]: 1 h
half-life [2, 7]: 1.4 h
MRT [2, 8]: 3.05 h
Tmax [2, 8]: 2 h
half-life [2, 8]: 2 h
MRT [2, 9]: 4.6 h
Tmax [2, 9]: 0.5 h
half-life [2, 9]: 2.8 h
AUC(0-inf) [2, 10]: 32300 ng·h/mL
MRT [2, 10]: 2.9 h
Tmax [2, 10]: 1 h
half-life [2, 10]: 1.9 h
MRT [2, 11]: 6.47 h
Tmax [2, 11]: 1 h
half-life [2, 11]: 4.07 h
Cmax ([2]; mouse, kidney, ip, 20 mg/kg, celecoxib, i.p. mice, kidney, read-out: Cmax): 15600 ng/g
Cmax ([2]; mouse, liver, ip, 20 mg/kg, celecoxib, i.p. mice, liver, read-out: Cmax): 10600 ng/g
Cmax ([2]; mouse, plasma, ip, 20 mg/kg, celecoxib, i.p. mice, plasma, read-out: Cmax): 9090 ng/mL
Cmax ([2]; mouse, spleen, ip, 20 mg/kg, celecoxib, i.p. mice, spleen, read-out: Cmax): 22400 ng/g
CK increase over saline group [3]: 1.17 fold
MTD ([4]; ip, celecoxib in solution, i.p., read-out: dose above which toxicity was exhibited): > 5 mg/kg
effect on cellular proliferation (U87 cells; free CXB, after 24 hours and 72 hours): able to impair cellular proliferation
IC50 (U87 cells; free CXB): < 400 µM

Cn1nnc2c(C(N)=O)ncn2c1=O [TMZ, temozolomide]
animals that survived and prevented tumor recurrence ([1]; i.p. 30 mg/kg, out of 6 animals, 91 days): 4
% Tumor Growth Delay [1, 5]: 75 ± 21%
% Tumor Growth Inhibition [1, 5]: 66 ± 33%
Median survival [1, 5]: 91 days
Survivals at 56 days [1, 5]: 6/6
Survivals at 91 days [1, 5]: 4/6
% Tumor Growth Delay [1, 12]: 75%
% Tumor Growth Inhibition [1, 12]: 66%
% Tumor Growth Delay ([1]; oral, 50 mg/kg): 54 ± 11%
% Tumor Growth Inhibition ([1]; oral, 50 mg/kg): 42 ± 14%
Median survival ([1]; oral, 50 mg/kg): 70 days
Survivals at 56 days ([1]; oral, 50 mg/kg): 1/6
Survivals at 91 days ([1]; oral, 50 mg/kg): 1/6
animals that survived without tumor recurrence ([1]; oral, 50 mg/kg): only one animal survived
mean survival time (MST) ([1]; oral, 50 mg/kg): 70 days
% Tumor Growth Delay [1, 13]: 54%
% Tumor Growth Inhibition [1, 13]: 42%
median OS (glioblastoma; combination with radiotherapy vs. 12.1 months radiotherapy alone, P<0.001): 14.6 months
median survival time in patients (glioblastoma; comparative studies of several chemotherapeutic agents, in words): highest median survival time in patients
CK increase over saline group [3]: 1.32 fold
MTD ([4]; ip, i.p. administration, read-out: upper threshold dose tolerated by animals): 30 mg/kg
MTD ([4]; oral administration, read-out: upper threshold dose tolerated by animals): 50 mg/kg
IC50 (U87 cells; Homo sapiens, U-87 MG, free TMZ): 800 µM
